In patent US11655235B2, “Pyrrolidine and piperidine compounds” (YUHAN CORPORATION, priority 2019, dated 2023):

Assays:
Assay type in all cases: biochemical
recombinant human DPP7 = target: T1, recombinant human DPP7 (Homo sapiens, UniProt Q9UHL4); assay: DPP7 inhibition, fluorogenic substrate Lys-Pro-AMC
T1 construct: purchased R&D Systems
Procedure, shortened: (§1)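 Inhibitors are titrated in an 8-point series into the enzyme's assay buffer (DMSO no more than 0.5%). Substrate cleavage at 25 °C is followed by fluorescence, excitation 380 nm and emission 460 nm. IC50 values come from a four-variable logistic model.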

Recombinant human FAP = target: T2, Recombinant human FAP (Homo sapiens, UniProt Q12884); assay: FAP inhibition, fluorogenic substrate Z-Gly-Pro-AMC; settings: 25° C., Z-Gly-Pro-AMC substrate
T2 construct: purchased R&D systems
T2 sequence (Q12884 1-760): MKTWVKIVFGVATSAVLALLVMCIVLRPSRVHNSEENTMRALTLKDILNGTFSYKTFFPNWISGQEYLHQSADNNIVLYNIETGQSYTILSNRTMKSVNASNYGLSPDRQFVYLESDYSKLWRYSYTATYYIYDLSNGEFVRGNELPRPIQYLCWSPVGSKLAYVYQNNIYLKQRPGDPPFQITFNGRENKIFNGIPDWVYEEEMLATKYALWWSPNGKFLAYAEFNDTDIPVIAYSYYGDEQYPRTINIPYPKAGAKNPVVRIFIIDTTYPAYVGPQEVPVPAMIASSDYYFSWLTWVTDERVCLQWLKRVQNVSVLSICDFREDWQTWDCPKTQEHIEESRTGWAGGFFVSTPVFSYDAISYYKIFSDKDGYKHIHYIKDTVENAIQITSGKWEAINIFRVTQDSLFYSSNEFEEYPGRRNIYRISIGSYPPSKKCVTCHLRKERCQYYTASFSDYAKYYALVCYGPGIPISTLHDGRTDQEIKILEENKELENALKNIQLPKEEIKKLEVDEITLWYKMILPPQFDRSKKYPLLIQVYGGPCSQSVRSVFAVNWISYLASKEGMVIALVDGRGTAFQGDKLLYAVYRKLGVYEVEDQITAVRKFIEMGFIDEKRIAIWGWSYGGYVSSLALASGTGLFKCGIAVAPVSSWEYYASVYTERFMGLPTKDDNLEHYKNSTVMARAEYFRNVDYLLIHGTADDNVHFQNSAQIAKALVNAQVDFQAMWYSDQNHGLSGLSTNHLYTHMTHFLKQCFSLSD
Procedure, shortened: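 Eight-point compound dilutions (≤0.1% DMSO) were incubated at 25° C with 10 ng recombinant human FAP in Tris pH 7.5/1 M NaCl/BSA buffer and Z-Gly-Pro-AMC. Inhibition was taken as % drop in fluorescence rate (380/460 nm) against uninhibited control; IC50 came from a four-parameter logistic fit.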

DPP4 = DPP4 (Homo sapiens, UniProt P27487); assay: DPP4 inhibition, fluorogenic substrate H-Gly-Pro-AMC; design: purchased R&D Systems; settings: for IC50: 25° C., H-Gly-Pro-AMC substrate; for inhibition at 1 µM: read-out: hDPP4 inhibition % at 1 μM
recombinant human DPP9 = target: T3, recombinant human DPP9 (Homo sapiens, UniProt Q86TI2); assay: DPP9 inhibition, fluorogenic substrate H-Gly-Pro-AMC; settings: 25° C., H-Gly-Pro-AMC substrate
T3 construct: purchased R&D Systems
Procedure, shortened: as §1

recombinant human DPP8 = target: T4, recombinant human DPP8 (Homo sapiens, UniProt Q6V1X1); assay: DPP8 inhibition, fluorogenic substrate Z-Ala-Pro-AMC; settings: 25° C., Z-Ala-Pro-AMC substrate
T4 construct: purchased PBS Bioscience
Procedure: The compounds according to the present technology were evaluated in terms of the inhibitory effect on the activity of dipeptidyl peptidases including FAP by using a substrate producing fluorescent substances upon enzymatic decomposition. The test was conducted at 25° C. to get a final reaction volume of 100 μL in a 96 black well plate. […] Briefly, the test compounds were dissolved in dimethyl sulfoxide (DMSO) at a concentration of 20 mM and then subjected to serial dilution, thereby creating an 8 point curve. As for the control group, a 6 point curve created by serial dilution of Talabostat in the same buffer solution was used. Fluorescence intensity was measured using a microplate reader (Flexstation3, Molecular Devices) under the wavelength condition exciting at 380 nm and reading the emission at 460 nm. The inhibitory effect of the test compounds was measured as a decrease (%) in the signal rate as compared to the control group without any inhibitor. Data was fixed to a logistic model with four variables and IC50 value was calculated using GraphPad Prism program. As for recombinant human DPP4 (R&D Systems), 25 mM tris (pH 8.0) buffer as a buffer solution and H-Gly-Pro-AMC (Bachem) as a substrate were used. As for recombinant human DPP7 (R&D Systems), 25 mM MES (pH 6.0) buffer as a buffer solution and Lys-Pro-AMC (Bachem) as a substrate were used. As for recombinant human DPP8 (PBS Bioscience), as a buffer solution, a 10 mM tris (pH 7.4) buffer comprising 10 mM of magnesium chloride and 0.05% of Tween 20, and Z-Ala-Pro-AMC (BPS Bioscience) as a substrate were used. As for recombinant human DPP9 (R&D Systems), a 25 mM tris (pH 8.0) buffer as a buffer solution and H-Gly-Pro-AMC (Bachem) as a substrate were used. As for recombinant human PREP (R&D System), as a buffer solution, a 25 mM tris (pH 7.5) buffer comprising 250 mM sodium chloride and 2.5 mM DTT (Dithiolthreitol), and Z-Gly-Pro-AMC (Bachem) as a substrate were used. The evaluation was made by using 10 ng of DPP4, PDD7, and PREP, 20 ng of DPP8, and 50 ng of DPP9 based on the final reaction. In the evaluation of DPP4, the test compounds were subjected to serial dilution in a buffer under the condition containing up to 0.1% of DMSO. In the evaluation of DPP7, DPP8, DPP9, and PREP, the test compounds were subjected to serial dilution in each buffer under the condition containing up to 0.5% of DMSO.

recombinant human PREP = target: T5, recombinant human PREP (Homo sapiens, UniProt P48147); assay: PREP inhibition, fluorogenic substrate Z-Gly-Pro-AMC; settings: Inhibitory Activity (IC50, nM) PREP, 25° C., Z-Gly-Pro-AMC substrate
T5 construct: purchased R&D System
T5 sequence (P48147 1-710): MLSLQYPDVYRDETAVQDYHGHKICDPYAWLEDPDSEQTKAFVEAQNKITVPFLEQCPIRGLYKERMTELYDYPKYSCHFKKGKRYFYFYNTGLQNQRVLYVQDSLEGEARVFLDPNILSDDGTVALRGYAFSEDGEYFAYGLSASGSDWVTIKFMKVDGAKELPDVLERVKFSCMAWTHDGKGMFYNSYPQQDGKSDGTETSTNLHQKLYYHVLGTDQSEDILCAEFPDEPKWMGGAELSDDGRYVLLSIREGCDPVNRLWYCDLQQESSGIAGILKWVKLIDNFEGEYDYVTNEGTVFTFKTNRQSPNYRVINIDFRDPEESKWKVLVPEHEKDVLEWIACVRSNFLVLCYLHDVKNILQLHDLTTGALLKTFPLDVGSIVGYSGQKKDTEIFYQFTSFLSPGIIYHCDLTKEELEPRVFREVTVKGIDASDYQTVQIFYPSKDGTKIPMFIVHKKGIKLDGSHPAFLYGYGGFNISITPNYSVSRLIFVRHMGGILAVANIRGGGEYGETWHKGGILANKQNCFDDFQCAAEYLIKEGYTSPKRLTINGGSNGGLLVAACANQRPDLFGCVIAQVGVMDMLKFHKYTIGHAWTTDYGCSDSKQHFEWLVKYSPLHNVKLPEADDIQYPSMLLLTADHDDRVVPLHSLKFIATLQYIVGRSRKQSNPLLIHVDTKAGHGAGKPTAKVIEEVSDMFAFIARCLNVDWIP
Procedure, shortened: as §1

T3 sequence (Q86TI2 whole entry): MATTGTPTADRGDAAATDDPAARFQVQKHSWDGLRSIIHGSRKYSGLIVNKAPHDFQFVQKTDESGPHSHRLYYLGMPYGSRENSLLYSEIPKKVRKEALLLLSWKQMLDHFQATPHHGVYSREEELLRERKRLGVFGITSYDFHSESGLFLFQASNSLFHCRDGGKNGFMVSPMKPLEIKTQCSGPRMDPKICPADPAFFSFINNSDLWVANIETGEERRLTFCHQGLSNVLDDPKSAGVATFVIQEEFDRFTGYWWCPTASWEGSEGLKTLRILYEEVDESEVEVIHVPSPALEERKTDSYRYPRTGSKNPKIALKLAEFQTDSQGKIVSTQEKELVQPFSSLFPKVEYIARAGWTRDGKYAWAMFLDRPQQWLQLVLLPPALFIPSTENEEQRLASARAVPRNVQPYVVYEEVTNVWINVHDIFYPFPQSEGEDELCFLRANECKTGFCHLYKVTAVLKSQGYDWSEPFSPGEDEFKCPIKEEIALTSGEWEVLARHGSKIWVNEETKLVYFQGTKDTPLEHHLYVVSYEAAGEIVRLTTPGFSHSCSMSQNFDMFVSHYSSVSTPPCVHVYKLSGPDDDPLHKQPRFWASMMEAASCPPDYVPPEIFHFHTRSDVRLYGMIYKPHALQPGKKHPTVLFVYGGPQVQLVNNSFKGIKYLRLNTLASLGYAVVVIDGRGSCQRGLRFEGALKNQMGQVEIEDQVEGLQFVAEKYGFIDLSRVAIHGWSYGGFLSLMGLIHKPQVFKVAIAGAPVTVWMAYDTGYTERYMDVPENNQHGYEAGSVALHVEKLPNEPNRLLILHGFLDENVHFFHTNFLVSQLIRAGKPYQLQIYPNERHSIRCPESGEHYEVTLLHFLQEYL
Chain of DPP4 (P27487 whole entry): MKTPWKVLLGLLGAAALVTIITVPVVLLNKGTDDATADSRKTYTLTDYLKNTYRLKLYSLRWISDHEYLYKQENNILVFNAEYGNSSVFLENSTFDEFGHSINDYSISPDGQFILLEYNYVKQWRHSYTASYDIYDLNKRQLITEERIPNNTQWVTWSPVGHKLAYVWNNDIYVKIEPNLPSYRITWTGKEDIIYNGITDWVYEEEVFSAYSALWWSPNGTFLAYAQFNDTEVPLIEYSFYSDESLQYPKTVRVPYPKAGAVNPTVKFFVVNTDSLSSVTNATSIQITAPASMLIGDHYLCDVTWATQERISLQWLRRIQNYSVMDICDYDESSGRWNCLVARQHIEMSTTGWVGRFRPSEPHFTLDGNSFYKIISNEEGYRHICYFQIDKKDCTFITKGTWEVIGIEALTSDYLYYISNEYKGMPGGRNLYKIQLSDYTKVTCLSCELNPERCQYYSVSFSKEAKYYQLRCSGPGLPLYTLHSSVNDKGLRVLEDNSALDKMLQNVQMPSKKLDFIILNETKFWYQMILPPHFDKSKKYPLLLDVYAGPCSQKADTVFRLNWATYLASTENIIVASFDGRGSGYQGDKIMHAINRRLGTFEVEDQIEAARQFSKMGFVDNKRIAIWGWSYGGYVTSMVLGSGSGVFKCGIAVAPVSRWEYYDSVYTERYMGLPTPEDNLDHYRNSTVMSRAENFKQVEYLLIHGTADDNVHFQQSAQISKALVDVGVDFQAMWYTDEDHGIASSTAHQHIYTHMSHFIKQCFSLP
T4 sequence (Q6V1X1 whole entry): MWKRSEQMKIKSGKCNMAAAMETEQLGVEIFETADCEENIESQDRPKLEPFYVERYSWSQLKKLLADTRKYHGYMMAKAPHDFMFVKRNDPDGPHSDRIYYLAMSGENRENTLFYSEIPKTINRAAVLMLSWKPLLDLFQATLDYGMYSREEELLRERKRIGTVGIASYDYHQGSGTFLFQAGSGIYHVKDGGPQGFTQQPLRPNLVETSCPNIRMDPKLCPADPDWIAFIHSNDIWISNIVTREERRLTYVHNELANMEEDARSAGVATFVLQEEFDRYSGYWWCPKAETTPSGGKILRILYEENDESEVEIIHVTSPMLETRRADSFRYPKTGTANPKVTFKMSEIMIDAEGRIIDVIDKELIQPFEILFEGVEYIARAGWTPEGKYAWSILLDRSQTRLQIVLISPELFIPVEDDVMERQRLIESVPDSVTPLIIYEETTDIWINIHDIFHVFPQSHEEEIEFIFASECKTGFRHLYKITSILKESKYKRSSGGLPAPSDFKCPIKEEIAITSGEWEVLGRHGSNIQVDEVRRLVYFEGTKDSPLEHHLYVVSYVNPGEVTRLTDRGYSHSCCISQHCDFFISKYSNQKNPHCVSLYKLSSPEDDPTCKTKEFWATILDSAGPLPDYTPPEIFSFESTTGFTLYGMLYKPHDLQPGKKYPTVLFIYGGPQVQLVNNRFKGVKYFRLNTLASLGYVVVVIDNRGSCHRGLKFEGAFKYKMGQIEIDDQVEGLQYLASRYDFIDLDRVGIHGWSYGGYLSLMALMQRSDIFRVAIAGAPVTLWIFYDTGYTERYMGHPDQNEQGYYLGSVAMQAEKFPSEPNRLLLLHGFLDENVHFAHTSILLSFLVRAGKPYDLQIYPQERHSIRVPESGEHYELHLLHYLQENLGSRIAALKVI

IC50 (recombinant human DPP7)	IC50 (Recombinant human FAP)	IC50 (DPP4)	IC50 (recombinant human DPP9)	IC50 (recombinant human DPP8)	IC50 (recombinant human PREP)	inhibition at 1 µM (DPP4)	Structure (SMILES)
75 nM	3.2 nM	> 1000 nM	9980 nM	143 nM	> 100000 nM		N#C[C@@H]1CC(F)(F)CN1C(=O)CN1CC[C@H](Nc2cccc3ccsc23)C1 [Example 10, (S)-1-(2-((S)-3-(benzo[b]thiophen-7-ylamino)pyrrolidin-1-yl)acetyl)-4,4-difluoropyrrolidine-2-carbonitrile]
95.6 nM	1.3 nM	> 1000 nM	17100 nM	228 nM	> 100000 nM		N#C[C@@H]1CC(F)(F)CN1C(=O)CN1CC[C@H](Nc2cccc3ccoc23)C1 [Example 11, (S)-1-(2-((S)-3-(benzofuran-7-ylamino)pyrrolidin-1-yl)acetyl)-4,4-difluoropyrrolidine-2-carbonitrile]
< 30 nM	0.5 nM	> 1000 nM	17700 nM	371 nM	> 100000 nM		N#C[C@@H]1CC(F)(F)CN1C(=O)CN1CC[C@H](Nc2cncc3ccoc23)C1 [Example 12, (S)-4,4-difluoro-1-(2-((S)-3-(furo[3,2-c]pyridin-7-ylamino)pyrrolidin-1-yl)acetyl)pyrrolidine-2-carbonitrile]
243 nM	24.6 nM	> 1000 nM	56500 nM	163 nM	> 100000 nM		N#C[C@@H]1CC(F)(F)CN1C(=O)CN1CC[C@H](Nc2ccccc2-c2ccccc2)C1 [Example 13, (S)-1-(2-((S)-3-([1,1′-biphenyl]-2-ylamino)pyrrolidin-1-yl)acetyl)-4,4-difluoropyrrolidine-2-carbonitrile]
126 nM	18.7 nM	> 1000 nM	11100 nM	676 nM	> 100000 nM		N#C[C@@H]1CC(F)(F)CN1C(=O)CN1CC[C@H](Nc2ccc(-c3ccccc3)cc2)C1 [Example 14, (S)-1-(2-((S)-3-([1,1′-biphenyl]-4-ylamino)pyrrolidin-1-yl)acetyl)-4,4-difluoropyrrolidine-2-carbonitrile]
196 nM	12.3 nM		48800 nM	253 nM	> 100000 nM	9.7%	N#C[C@@H]1CC(F)(F)CN1C(=O)CN1CC[C@H](Nc2ccc3ccccc3c2)C1 [Example 15, (S)-4,4-difluoro-1-(2-((S)-3-(naphthalen-2-ylamino)pyrrolidin-1-yl)acetyl)pyrrolidine-2-carbonitrile]
84.7 nM	2.6 nM		13700 nM	557 nM	> 100000 nM	11%	N#C[C@@H]1CC(F)(F)CN1C(=O)CN1CC[C@H](Nc2cccc(-c3ccccc3)c2)C1 [Example 16, (S)-1-(2-((S)-3-([1,1′-biphenyl]-3-ylamino)pyrrolidin-1-yl)acetyl)-4,4-difluoropyrrolidine-2-carbonitrile]
1610 nM	6.24 nM	> 1000 nM	> 100000 nM	> 10000 nM	6960 nM		N#C[C@@H]1CCCN1C(=O)CN1CC[C@@H](Nc2cnc3ccccc3c2)C1 [Example 17, (S)-1-(2-((R)-3-(quinolin-3-ylamino)pyrrolidin-1-yl)acetyl)pyrrolidine-2-carbonitrile]
206 nM	5.74 nM	> 1000 nM	44000 nM	45200 nM	11800 nM		N#C[C@@H]1CCCN1C(=O)CN1CC[C@H](Nc2cncc3ccccc23)C1 [Example 19, (S)-1-(2-((S)-3-(isoquinolin-4-ylamino)pyrrolidin-1-yl)acetyl)pyrrolidine-2-carbonitrile]
2120 nM	4.53 nM	> 1000 nM	69100 nM	23100 nM	7230 nM		N#C[C@@H]1CCCN1C(=O)CN1CC[C@H](Nc2cccc3sccc23)C1 [Example 20, (S)-1-(2-((S)-3-(benzo[b]thiophen-4-ylamino)pyrrolidin-1-yl)acetyl)pyrrolidine-2-carbonitrile]
524 nM	2.12 nM	> 1000 nM	68000 nM	77300 nM	5460 nM		N#C[C@@H]1CCCN1C(=O)CN1CC[C@@H](Nc2cncc3ccccc23)C1 [Example 24, (S)-1-(2-((R)-3-(isoquinolin-4-ylamino)pyrrolidin-1-yl)acetyl)pyrrolidine-2-carbonitrile]
1220 nM	1.62 nM		27400 nM	20700 nM	12100 nM	5.4%	N#C[C@@H]1CCCN1C(=O)CN1CC[C@H](Nc2cccc3ncccc23)C1 [Example 27, (S)-1-(2-((S)-3-(quinolin-5-ylamino)pyrrolidin-1-yl)acetyl)pyrrolidine-2-carbonitrile]
346 nM	1.82 nM	2630 nM	8240 nM	18600 nM	6600 nM		N#C[C@@H]1C[C@H](F)CN1C(=O)CN1CC[C@H](Nc2cncc3ccoc23)C1 [Example 28, (2S,4S)-4-fluoro-1-(2-((S)-3-(furo[3,2-c]pyridin-7-ylamino)pyrrolidin-1-yl)acetyl)pyrrolidin-2-carbonitrile]
